Results as given in US7989430B2, “Antibacterial agents” (priority 2005, dated 2011).
≈ marks a conversion by molar mass, not a printed value.

Tests used:
M. tuberculosis H37Rv [1] = settings: Ferreras et al., Nature Chem. Biol. 2005, likely the free acid form; cited from earlier work
M. tuberculosis H37Rv [2] = assay: M. tuberculosis H37Rv MIC assay (whole-cell); type: cell-based, Mycobacterium tuberculosis
[3] = Chemical stability on storage; settings: salt form prepared in Example 1 vs free acid
MbtA = MbtA (Mycobacterium tuberculosis, UniProt P71716); settings: data not shown
Chain of MbtA (P71716 whole entry): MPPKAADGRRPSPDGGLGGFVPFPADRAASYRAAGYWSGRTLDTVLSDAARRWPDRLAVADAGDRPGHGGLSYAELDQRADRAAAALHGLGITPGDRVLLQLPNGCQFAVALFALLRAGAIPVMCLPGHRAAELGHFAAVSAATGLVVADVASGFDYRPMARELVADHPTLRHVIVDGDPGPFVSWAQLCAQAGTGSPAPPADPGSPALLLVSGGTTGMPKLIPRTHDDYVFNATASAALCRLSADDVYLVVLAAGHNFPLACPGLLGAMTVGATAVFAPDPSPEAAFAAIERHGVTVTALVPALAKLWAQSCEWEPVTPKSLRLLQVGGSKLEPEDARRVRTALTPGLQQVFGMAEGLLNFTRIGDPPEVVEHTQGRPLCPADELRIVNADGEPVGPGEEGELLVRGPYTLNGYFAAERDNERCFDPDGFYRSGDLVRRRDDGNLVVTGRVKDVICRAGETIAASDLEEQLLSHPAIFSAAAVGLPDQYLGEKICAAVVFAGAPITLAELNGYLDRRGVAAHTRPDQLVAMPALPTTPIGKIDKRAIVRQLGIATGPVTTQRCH

[4] = 50% aq TFA, 3 h

## Nc1ncnc2c1ncn2[C@@H]1O[C@H](COS(=O)(=O)NC(=O)c2ccc(O)c(O)c2)[C@@H](O)[C@H]1O
other
  melting point: > 190 °C (dec.)

## Nc1ncnc2c1ncn2[C@@H]1O[C@H](COS(=O)(=O)NC(=O)c2ccccc2O)[C@@H](O)[C@H]1O [Compound 34, 5′-O—(N-(2-hydroxybenzoyl)sulfamoyl)adenosine]
M. tuberculosis H37Rv [1]
  MIC50: 2.2 µM (≈ 1.03 µg/mL)

## CCN(CC)CC.Nc1ncnc2c1ncn2[C@@H]1O[C@H](COS(=O)(=O)NC(=O)c2ccccc2O)[C@@H](O)[C@H]1O [Example 1, 5′-O—(N-(2-Hydroxybenzoyl)sulfamoyl)-adenosine triethylammonium salt]
M. tuberculosis H37Rv [2]; salt form vs free acid
  potency against M. tuberculosis H37Rv relative to the free acid: about 28 times
[3]
  stability relative to the free acid: significantly more stable

## CCN(CC)CC.Nc1ncnc2c1ncn2[C@H]1C[C@H](O)[C@@H](COS(=O)(=O)NC(=O)c2ccccc2O)O1 [Example 42, 2′-Deoxy-5′-O—[N-(2-hydroxybenzoyl)sulfamoyl]-adenosine triethylammonium salt]
M. tuberculosis H37Rv [2]; data not shown
  activity in whole-cell assay of M. tuberculosis: potent activity
MbtA
  activity in the in vitro enzyme assay: potent activity
[4]
  stability under acidic conditions: unstable
